pIC50: −log10 of the molar value. The source made the active and inactive calls. No cut-off for these calls is given here.
Columns and labels:
[1] = biological target: T1, RAC-alpha serine/threonine-protein kinase (Homo sapiens, UniProt P31749)
Description: Inhibition of Akt1 in human LNCAP cells assessed as phosphorylation of PRAS40 at Thr246 after 1.5 hrs

[2] = biological target: RAC-gamma serine/threonine-protein kinase (Homo sapiens, UniProt Q9Y243)
Description: Competitive inhibition of wild-type full-length amino-terminal polyhistidine-tagged human Akt3 expressed in recombinant baculovirus system using fluorescence labeled Crosstide as substrate after 60 mins by fluorescence polarization assay in presence of ATP

[3] = biological target: T1, RAC-alpha serine/threonine-protein kinase; remark: listed apart in the source
Description: Competitive inhibition of wild-type full-length amino-terminal polyhistidine-tagged human Akt1 expressed in recombinant baculovirus system using fluorescence labeled substrate after 60 mins by fluorescence polarization assay in presence of ATP

[4] = Competitive inhibition of PKA expressed in Escherichia coli assessed as fluorescence labeled peptide substrate phosphorylation after 60 mins in presence of ATP
[5] = Permeability across apical to basolateral side in human Caco2 cells; assay type: ADME, cell-based; conditions: Caco-2, read-out: permeability
[6] = Permeability across basolateral to apical side in human Caco2 cells; assay type: ADME, cell-based; conditions: Caco-2, read-out: permeability
Mus musculus [7] = experiment: Inhibition of Akt in nu/nu mouse xenografted with human PC3 cells assessed as decrease in tumor p-PRAS40 level at 100 mg/kg, po at 8 hrs by ELISA relative to total PRAS40; assay type: functional; conditions: PC-3, 8 h
[8] = Plasma concentration in nu/nu mouse xenografted with human PC3 cells at 12.5 mg/kg, po within 1 hr by LC/MS/MS analysis; assay type: ADME, organism-based, PC-3; parameters: dose 12.5 mg/kg, route oral
[9] = Plasma concentration in nu/nu mouse xenografted with human PC3 cells at 50 mg/kg, po at 1 hr by LC/MS/MS analysis; assay type: ADME, organism-based, PC-3; parameters: dose 50 mg/kg, route oral
LNCaP = experiment: Cytotoxicity against human LNCAP cells assessed as reduction of resazurin to resorufin after 72 hrs
[10] = Solubility of the compound at pH 1.2 to 7.4; assay type: physicochemical; conditions: buffer
MCF7 = experiment: Cytotoxicity against human MCF7 cells overexpressing Her2 assessed as decrease in cell viability after 96 hrs by CellTitre-Glo assay; conditions: MCF7, 96 h
Mus musculus [11] = experiment: Toxicity in nu/nu mouse xenografted with human PC3 cells assessed as loss in body weight at 1 to 100 mg/kg, po qd relative to vehicle-treated control; assay type: organism-based, PC-3; parameters: dose 1-100 mg/kg, route oral; conditions: in vivo
PC-3 [12] = experiment: Antitumor activity against human PC3 xenografted in nu/nu mouse assessed as inhibition of tumor growth at 25 mg/kg, po qd after 11 days; assay type: functional; conditions: PC-3, 264 h, read-out: TGI
[13] = Plasma concentration in nu/nu mouse xenografted with human PC3 cells at 50 mg/kg, po within 1 hr by LC/MS/MS analysis; assay type: ADME, organism-based, PC-3; parameters: dose 50 mg/kg, route oral
PC-3 [14] = experiment: Cytotoxicity against human PC3 cells assessed as decrease in cell viability after 96 hrs by CellTitre-Glo assay; conditions: PC-3, 96 h
Mus musculus [15] = experiment: Toxicity in nu/nu mouse xenografted with human PC3 cells assessed as loss in body weight at 150 mg/kg, po qd after 8 days relative to vehicle-treated control; assay type: organism-based, PC-3; parameters: dose 150 mg/kg, route oral; conditions: in vivo, 192 h
BT-474 = experiment: Cytotoxicity against human BT474M1 cells assessed as decrease in cell viability after 96 hrs by CellTitre-Glo assay; conditions: BT474M1, 96 h
PC-3 [16] = experiment: Antitumor activity against human PC3 xenografted in nu/nu mouse assessed as inhibition of tumor growth at 100 mg/kg, po qd after 11 days; assay type: functional; conditions: PC-3, 264 h, read-out: TGI
[17] = Plasma concentration in nu/nu mouse xenografted with human PC3 cells at 100 mg/kg, po at 8 hrs by LC/MS/MS analysis; assay type: ADME, organism-based, PC-3; parameters: dose 100 mg/kg, route oral
PC-3 [18] = experiment: Antitumor activity against human PC3 xenografted in po dosed nu/nu mouse assessed as inhibition of tumor growth administered once daily measured after 11 days; assay type: functional; conditions: PC-3, po, 264 h, read-out: MED
[19] = Plasma concentration in nu/nu mouse xenografted with human PC3 cells at 50 mg/kg, po at 9 hrs by LC/MS/MS analysis; assay type: ADME, organism-based, PC-3; parameters: dose 50 mg/kg, route oral
PC-3 [20] = experiment: Antitumor activity against human PC3 xenografted in nu/nu mouse assessed as inhibition of tumor growth at 50 mg/kg, po bid after 11 days; assay type: functional; conditions: PC-3, 264 h, read-out: TGI
[21] = biological target: T1, RAC-alpha serine/threonine-protein kinase; conditions: BT474M1
Description: Inhibition of Akt1-mediated PRAS40 phosphorylation in human BT474M1 cells

Mus musculus [22] = experiment: Inhibition of Akt in nu/nu mouse xenografted with human PC3 cells assessed as decrease in tumor p-PRAS40 level at 100 mg/kg, po within 3 hrs by ELISA relative to total PRAS40; assay type: functional; conditions: PC-3, 3 h

T1 sequence (P31749 whole entry): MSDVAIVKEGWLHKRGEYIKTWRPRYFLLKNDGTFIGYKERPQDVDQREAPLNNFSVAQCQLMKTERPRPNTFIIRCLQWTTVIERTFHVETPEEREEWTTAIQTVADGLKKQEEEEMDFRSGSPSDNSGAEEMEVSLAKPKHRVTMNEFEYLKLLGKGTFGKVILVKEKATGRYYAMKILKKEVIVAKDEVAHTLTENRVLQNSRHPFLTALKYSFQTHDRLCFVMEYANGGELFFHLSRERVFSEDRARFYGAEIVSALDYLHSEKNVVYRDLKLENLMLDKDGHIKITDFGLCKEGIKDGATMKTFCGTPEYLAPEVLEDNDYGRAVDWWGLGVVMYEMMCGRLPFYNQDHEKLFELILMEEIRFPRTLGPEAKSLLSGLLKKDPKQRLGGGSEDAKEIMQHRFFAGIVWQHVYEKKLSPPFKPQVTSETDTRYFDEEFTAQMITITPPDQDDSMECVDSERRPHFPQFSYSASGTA
RAC-gamma serine/threonine-protein kinase, sequence (Q9Y243 whole entry): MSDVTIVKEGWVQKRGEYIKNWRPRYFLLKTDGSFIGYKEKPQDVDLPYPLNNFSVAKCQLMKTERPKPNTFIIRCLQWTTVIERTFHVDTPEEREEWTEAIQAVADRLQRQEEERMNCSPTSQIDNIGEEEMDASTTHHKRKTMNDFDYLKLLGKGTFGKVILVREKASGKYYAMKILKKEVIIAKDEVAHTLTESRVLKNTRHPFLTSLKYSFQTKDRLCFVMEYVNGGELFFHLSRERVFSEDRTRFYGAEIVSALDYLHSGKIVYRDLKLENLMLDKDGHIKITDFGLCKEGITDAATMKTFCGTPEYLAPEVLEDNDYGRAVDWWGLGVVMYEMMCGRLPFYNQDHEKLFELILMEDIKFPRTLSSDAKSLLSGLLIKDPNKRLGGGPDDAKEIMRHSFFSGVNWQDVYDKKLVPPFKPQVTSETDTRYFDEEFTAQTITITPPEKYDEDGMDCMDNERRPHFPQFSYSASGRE

SMILES	pIC50 [1]	pIC50 [2]	pIC50 [3]	pIC50 [4]	further results
C=C[C@@H]1CCc2ncnc(N3CCN(C(=O)[C@H](CNC(C)C)c4ccc(Cl)cc4)CC3)c21	6.75	9.00	8.70	8.00	
C[C@@H]1C[C@@H](O)c2ncnc(N3CCN(C(=O)[C@H](CNC(C)(C)C)c4ccc(C(F)(F)F)c(F)c4)CC3)c21				6.82	
CC(C)NC[C@@H](C(=O)N1CCN(c2ncnc3c2[C@H](CF)CC3)CC1)c1ccc(Cl)cc1	6.91	8.30	8.52	7.46	
CO[C@H]1CC[C@H](NC[C@@H](C(=O)N2CCN(c3ncnc4c3[C@H](C)C[C@H]4O)CC2)c2ccc(Cl)cc2)CC1	6.88	8.40	8.30	6.18	
C[C@@H]1C[C@@H](O)c2ncnc(N3CCN(C(=O)[C@H](CN)c4ccc(C(F)(F)F)cc4)CC3)c21	6.22	7.57	7.92	6.38	
C[C@@H]1C[C@@H](O)c2ncnc(N3CCN(C(=O)[C@@H](c4ccc(Cl)cc4)[C@@H]4CCCN4)CC3)c21	6.62	8.30	8.52	6.57	
C[C@@H]1C[C@@H](O)c2ncnc(N3CCN(C(=O)[C@H](CNC4CCOCC4)c4ccc(Cl)cc4)CC3)c21				6.18	
C[C@@H]1C[C@@H](O)c2ncnc(N3CCN(C(=O)[C@@H](c4ccc(Cl)cc4)[C@@H]4CCCCN4)CC3)c21	6.28	7.92	8.05	5.80	
CC(C)NC[C@@H](C(=O)N1CCN(c2ncnc3c2[C@H](CO)CC3)CC1)c1ccc(Cl)cc1	6.07	7.08	7.09	6.02	
C[C@@H]1C[C@@H](O)c2ncnc(N3CCN(C(=O)[C@H](CNCC4CC4)c4ccc(C(F)(F)F)c(F)c4)CC3)c21		8.70		6.99	
C[C@@H]1C[C@@H](O)c2ncnc(N3CCN(C(=O)[C@H](CNCC4CCOCC4)c4ccc(Cl)cc4)CC3)c21	6.99	8.40	8.52	6.36	
CC(C)NC[C@@H](C(=O)N1CCN(c2ncnc3c2[C@H](C)C[C@H]3O)CC1)c1ccc(Cl)cc1 [IPATASERTIB]				5.51	inhibition in vivo at 100 mg/kg (Mus musculus [7]): 87%; concentration at 1 h [8]: ≥ 200 nM; concentration at 1 h [9]: 7400 nM; pIC50 (LNCaP): 7.02; solubility [10]: > 10000 µg/mL; pIC50 (MCF7): 6.00; Activity (Mus musculus [11]): < 10%; inhibition in vivo at 25 mg/kg (PC-3 [12]): 49%; concentration at 1 h [13]: ≥ 200 nM; pIC50 (PC-3 [14]): 6.00; Activity (Mus musculus [15]): >= 20%; pIC50 (BT-474): 6.00; inhibition in vivo at 100 mg/kg (PC-3 [16]): 79%; concentration at 8 h [17]: > 2600 nM; minimal effective dose (PC-3 [18]): 25 mg/kg; concentration at 9 h [19]: 500 nM; inhibition in vivo at 50 mg/kg (PC-3 [20]): 81%; inhibition [21]: Active; inhibition in vivo at 100 mg/kg (Mus musculus [22]): > 95%
C[C@@H]1C[C@@H](O)c2ncnc(N3CCN(C(=O)[C@@H](c4ccc(Cl)cc4)[C@@H]4COCCN4)CC3)c21	6.07	7.59	7.92	5.87	
C[C@@H]1C[C@@H](O)c2ncnc(N3CCN(C(=O)[C@H](CNC4CCOCC4)c4ccc(Cl)c(F)c4)CC3)c21	6.86	7.92	7.92	6.25	
C[C@@H]1C[C@@H](O)c2ncnc(N3CCN(C(=O)[C@H](CNC(C)(C)CO)c4ccc(C(F)(F)F)c(F)c4)CC3)c21		8.70		7.12	
C[C@@H]1C[C@@H](O)c2ncnc(N3CCN(C(=O)[C@H](CN4CCC(F)CC4)c4ccc(Cl)cc4)CC3)c21	6.71		8.22	5.92	
CC(C)NC[C@@H](C(=O)N1CCN(c2ncnc3c2C(C)(C)CC3)CC1)c1ccc(Cl)cc1		< 5.70		< 5.70	

The next lines start with results.

pIC50 [1]	pIC50 [2]	pIC50 [3]	pIC50 [4]	SMILES	further results
5.89	7.68	7.92	5.88	C[C@@H]1C[C@@H](O)c2ncnc(N3CCN(C(=O)[C@H](CNCCF)c4ccc(Cl)cc4)CC3)c21	
5.07		5.93	< 5.00	CC(C)NC[C@@H](C(=O)N1CCN(c2ncnc3c2[C@H](C)CC3(F)F)CC1)c1ccc(Cl)cc1	
			5.81	CC(C)NC[C@@H](C(=O)N1CCN(c2ncnc3c2[C@H](C)C[C@@H]3O)CC1)c1ccc(Cl)cc1	
6.54	8.30	8.22	7.48	CC(C)NC[C@@H](C(=O)N1CCN(c2ncnc3c2[C@H](C)CC3)CC1)c1ccc(Cl)cc1	Papp A→B [5]: 13.2 ×10⁻⁶ cm/s; Papp B→A [6]: 19.2 ×10⁻⁶ cm/s
			6.11	C[C@@H]1C[C@@H](O)c2ncnc(N3CCN(C(=O)[C@H](CNCC4CC4)c4ccc(Cl)cc4)CC3)c21	
	8.00		7.77	CC(C)NC[C@@H](C(=O)N1CCN(c2ncnc3c2[C@H](C)C[C@H]3F)CC1)c1ccc(Cl)cc1	
5.84	7.35	7.62	6.15	C[C@@H]1C[C@@H](O)c2ncnc(N3CCN(C(=O)[C@H](CN)c4ccc(Cl)cc4)CC3)c21	
6.44	8.15	8.05	5.89	C[C@@H]1C[C@@H](O)c2ncnc(N3CCN(C(=O)[C@H](CNC4CCCCC4)c4ccc(Cl)cc4)CC3)c21	
6.63	8.15	8.52	6.31	CC(C)NC[C@@H](C(=O)N1CCN(c2ncnc3c2[C@H](C)C[C@H]3O)CC1)c1ccc(Cl)c(F)c1	
7.12	8.52	8.70	6.53	C[C@@H]1C[C@@H](O)c2ncnc(N3CCN(C(=O)[C@H](CNC(C)(C)CO)c4ccc(Cl)cc4)CC3)c21	
	7.64		6.27	CC(C)NC[C@@H](C(=O)N1CCN(c2ncnc3c2[C@H](C)C[C@@H]3F)CC1)c1ccc(Cl)cc1	
6.86		7.74	5.67	CC(C)N(C)C[C@@H](C(=O)N1CCN(c2ncnc3c2[C@H](C)C[C@H]3O)CC1)c1ccc(Cl)cc1	
	6.10	6.04	< 5.00	C[C@@H]1C[C@@H](O)c2ncnc(N3CCN(C(=O)[C@H](CNCC(F)(F)F)c4ccc(Cl)cc4)CC3)c21	
6.42	7.89	8.10	6.00	COCCNC[C@@H](C(=O)N1CCN(c2ncnc3c2[C@H](C)C[C@H]3O)CC1)c1ccc(Cl)cc1	

From ChEMBL document CHEMBL2177010, “Discovery and preclinical pharmacology of a selective ATP-competitive Akt inhibitor (GDC-0068) for the treatment of human tumors” (J Med Chem, 2012)
